Results on 31 molecules are retold here after US9284303B2, “Benzimidazole cannabinoid agonists bearing a substituted heterocyclic group” (priority 2006, dated 2016).

Data set [1] has as its target T1, human CB1 (hCB1) receptor (Homo sapiens, UniProt P21554).
T1 construct: expressed in transfected cells; host or cells: CHO-K1
Kind of data set: Inhibition of forskolin-activated cAMP production upon activation of hCB1 (HTRF), CHO-K1 cells. Format: cell-based. To be noted: CB1 pEC50, hCB1-CHO-K1 cells, forskolin-activated cAMP, pEC50=-log(EC50). How it is done:
(§1) Functional activity of the test compounds was assessed by measuring their potency to inhibit forskolin-activated cAMP production upon activation of the human CB1 (hCB1) or human CB2 (hCB2) receptor through homogenous time resolved fluorescence (HTRF) assays.
CHO-K1 cells stably transfected with either hCB1 or hCB2 were grown up to 80-90% confluence in T175 Falcon flasks in DMEM/NUT MIX F-12 culture medium complemented with 2% Solution A (5.10^6 IU/l penicillin G, 5 g/l streptomycin sulphate, 5.5 g/l pyruvate, 14.6 g/l L-glutamine, 1M NaOH) and 10% foetal calf serum. Before the experiments, medium was removed, cells were washed with PBS/EDTA (140 mM NaCl, 1 mM Naz-EDTA, 8 mM Na2HPO4.2H2O, 8.5 mM KH2PO4, 2.7 mM KCl, 21 mM glucose), resuspended in stimulation buffer (HBSS 1x, IBMX 1 mM, Hepes 5 mM, MgCl2 10 mM, BSA 0.1%, pH 7.4). Cells were diluted to a concentration of 8.10^5 cell/ml for hCB1 experiments and 10^6 cells/ml for hCB2 experiments. Assays were performed using the cAMP Dynamic HTRF kit (CIS bio international, France) according to the recommendations of the manufacturer.
For CB1, each well of a 96 flat bottom black polystyrene assay plate (Costar) was filled with 25 μl stimulation buffer containing 6 μM forskolin and either test compound (in 2% DMSO), 2% DMSO or 2 μM CP55490 (in 2% DMSO). Then, 25 μl of the diluted cells was added (20,000 cells/well). After 30 minutes incubation in dark at room temperature, 25 μl cAMP-XL665 and 25 μl anti-cAMP cryptate (both at a final dilution of 1/80) was added to the cells.
After equilibration of the reaction mixtures for 1 to 24 hours in dark at room temperature, fluorescence was measured at 665 nm and 620 nm using a Discovery microplate fluorescence counter (Perkin Elmer), and the signal ratio of 665 nm/620 nm was calculated. The signal ratios of the test compounds were expressed relative to the signal ratios of the DMSO control (maximal signal ratio, no inhibition of cAMP) and CP55490 or WIN55212-2 for hCB1 and hCB2, respectively (minimal signal ratio, maximal inhibition of cAMP). From the dose response curves generated for each test compound, the dose at which 50% of the maximal inhibition of cAMP level is observed (EC50, expressed in the Tables as pEC50=−log(EC50) values) and the level of inhibition reached with 10 μM of the test compound compared to CP55490 (for hCB1) or WIN55212-2 (for hCB2) was calculated.
(cAMP levels reflect the balance of adenylyl cyclase and phosphodiesterase activity.)

For data set [2], the target named is T2, human CB2 (hCB2) receptor (Homo sapiens, UniProt P34972).
T2 construct: expressed in transfected cells; host or cells: CHO-K1
Description: Inhibition of forskolin-activated cAMP production upon activation of hCB2 (HTRF), CHO-K1 cells. It is filed as cell-based. To be noted: for ratio CB2 agonism over CB1 agonism: Table C-1, selectivity hCB2 over hCB1; for ratio CB2 over CB1 agonism: Table C-3, comparison of art compounds A to E with compounds of the invention; for EC50: forskolin-activated cAMP, pEC50=-log(EC50). The method, then:
as §1
Before the experiments, medium was removed, cells were washed with PBS/EDTA (140 mM NaCl, 1 mM Naz-EDTA, 8 mM Na2HPO4.2H2O, 8.5 mM KH2PO4, 2.7 mM KCl, 21 mM glucose), resuspended in stimulation buffer (HBSS 1x, IBMX 1 mM, Hepes 5 mM, MgCl2 10 mM, BSA 0.1%, pH 7.4). Cells were diluted to a concentration of 8.10^5 cell/ml for hCB1 experiments and 10^6 cells/ml for hCB2 experiments. Assays were performed using the cAMP Dynamic HTRF kit (CIS bio international, France) according to the recommendations of the manufacturer.
Then, 20 μl of the diluted hCB2-CHO-K1 cells was added (20,000 cells/well). After 30 minutes incubation in dark at room temperature, 10 μl cAMP-XL665 and 10 μl anti-cAMP cryptate (both at a final dilution of 1/100) was added to the cells.

Where [3] appears, read: hCB2-CHO-K1 cells, read-out: CB2 pEC50 (converted).

One may read the melting point as the temperature, or range, at which the solid turns liquid.

The structures appear in SMILES notation. Where a name gives a salt, the structure may show the parent alone. Read-outs that look alike come from different tables or passages of the source.

T2 sequence (P34972 whole entry): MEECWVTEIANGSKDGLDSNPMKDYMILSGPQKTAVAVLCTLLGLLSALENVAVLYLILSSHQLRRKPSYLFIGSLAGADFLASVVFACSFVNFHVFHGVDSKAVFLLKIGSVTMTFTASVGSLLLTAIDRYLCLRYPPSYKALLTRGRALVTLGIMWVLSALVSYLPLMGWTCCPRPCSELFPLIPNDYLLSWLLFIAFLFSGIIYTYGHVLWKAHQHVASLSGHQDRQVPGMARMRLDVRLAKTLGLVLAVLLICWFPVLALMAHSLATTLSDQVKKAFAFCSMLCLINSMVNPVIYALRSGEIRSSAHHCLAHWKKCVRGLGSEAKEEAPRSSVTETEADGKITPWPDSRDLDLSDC
T1 sequence (P21554 whole entry): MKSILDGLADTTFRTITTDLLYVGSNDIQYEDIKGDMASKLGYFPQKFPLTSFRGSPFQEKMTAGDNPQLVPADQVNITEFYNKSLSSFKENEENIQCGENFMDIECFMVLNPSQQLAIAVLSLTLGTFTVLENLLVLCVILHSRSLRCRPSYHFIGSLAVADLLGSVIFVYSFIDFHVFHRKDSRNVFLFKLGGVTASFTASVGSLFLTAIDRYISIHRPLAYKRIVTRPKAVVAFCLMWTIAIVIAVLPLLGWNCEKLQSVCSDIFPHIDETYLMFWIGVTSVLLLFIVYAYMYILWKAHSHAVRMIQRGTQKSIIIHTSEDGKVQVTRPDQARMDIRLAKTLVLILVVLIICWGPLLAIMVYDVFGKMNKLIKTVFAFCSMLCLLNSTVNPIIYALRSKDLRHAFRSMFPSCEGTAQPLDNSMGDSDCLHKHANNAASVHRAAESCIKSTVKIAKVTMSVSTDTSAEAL

For `CC(=O)N1CCC(Cn2c(C(C)(C)C)nc3cc(S(=O)(=O)c4ccnc(F)c4)ccc32)CC1`, the melting point stood at 193.9 °C.

Take `CC(C)(C)c1nc2cc(S(=O)(=O)c3ccnc(F)c3)ccc2n1CCCC(F)(F)F`: the melting point was 138.9 °C.

The molecule `CC(C)(C)c1nc2cc(S(=O)(=O)c3ncc(C#N)s3)ccc2n1CCCC(F)(F)F` yielded a melting point of 122 °C.

For the molecule `CC(C)(C)c1nc2cc(S(=O)(=O)c3ccnc(O)c3)ccc2n1CCCC(F)(F)F`, the melting point stood at 277.5 °C.

Regarding `CCOc1cc(S(=O)(=O)c2ccc3c(c2)nc(C(C)(C)C)n3CCCC(F)(F)F)ccn1`, the melting point came to 137.7 °C.

`CC(C)(C)c1nc2cc(S(=O)(=O)c3ccc(C#N)s3)ccc2n1CC1CCOCC1` had a melting point of 156 °C.

With `CC(O)c1ccc(S(=O)(=O)c2ccc3c(c2)nc(C(C)(C)C)n3CC2CCOCC2)s1` (centres unmarked), the melting point stood at 192 °C.

Consider `CC(C)(C)c1nc2cc(S(=O)(=O)c3ccc(S(N)(=O)=O)s3)ccc2n1CC1CCOCC1`, for which the melting point was 259 °C.

Molecule `CC(C)(C)c1nc2cc(S(=O)(=O)c3ccnc(F)c3)ccc2n1CC1CCC1` (as salt: HCl) (hydrate or solvate) [Co. No. 136] returned a melting point of 184.3 °C.

In turn, `CC(C)(C)c1nc2cc(S(=O)(=O)c3ccc(S(N)(=O)=O)s3)ccc2n1CC1CCOCC1` (as salt: HCl) [Co. No. 47] registered a melting point of 255 to 260 °C.

On to `CC(C)(C)c1nc2cc(S(=O)(=O)c3ccc(S(C)(=O)=O)s3)ccc2n1CC1CCOCC1` (as salt: HCl) [Co. No. 58], for which the melting point came out at 224 °C.

With `CC(C)(C)c1nc2cc(S(=O)(=O)c3ccc(C(=O)N4CCCC4)o3)ccc2n1CC1CCOCC1` (as salt: HCl) [Co. No. 74], the melting point was determined as 108.5 °C.

As to `CC(C)(C)c1nc2cc(S(=O)(=O)c3ccnc(C#N)c3)ccc2n1CC1CCOCC1` (as salt: methanesulfonate) [Co. No. 93], the melting point was 215.7 °C.

Molecule `CC(C)(C)c1nc2cc(S(=O)(=O)c3ccc(O)nc3)ccc2n1CC1CCOCC1` [Co. No. 1] had a melting point of 251 °C. This molecule also had an EC50 in data set [1] of over 10000 nM. Further, in data set [2], the “ratio CB2 agonism over CB1 agonism” value is listed as over 1995 and the “ratio CB2 over CB1 agonism” value is 1995. Besides, the EC50 in data set [2] (setting [3]) is 5.01 nM.

`CC(C)(C)c1nc2cc(S(=O)(=O)c3cc[n+]([O-])cc3)ccc2n1CC1CCOCC1` [Co. No. 3] displayed a melting point of 203 °C. Moreover, the EC50 in data set [1] is 692 nM. Also, the EC50 in data set [2] (setting [3]) is 1.74 nM.

Turning to `CC(=O)c1ccc(S(=O)(=O)c2ccc3c(c2)nc(C(C)(C)C)n3CC2CCOCC2)nc1` [Co. No. 4], the melting point was over 120 °C. The same molecule had an EC50 in data set [1] of 3240 nM. Also, in data set [2], the “ratio CB2 agonism over CB1 agonism” value is 1679 and the “ratio CB2 over CB1 agonism” value is 1679. Besides, the EC50 in data set [2] (setting [3]) is 1.91 nM.

With `Cc1nc(-c2csc(S(=O)(=O)c3ccc4c(c3)nc(C(C)(C)C)n4CC3CCOCC3)c2)no1` [Co. No. 5], the melting point fell in the range of 192 to 193 °C. Also, the EC50 in data set [1] is 257 nM. Besides, the “ratio CB2 agonism over CB1 agonism” value in data set [2] is on record as 676. For the same molecule, the EC50 in data set [2] (setting [3]) is 0.372 nM.

Molecule `CC(C)(C)c1nc2cc(S(=O)(=O)c3ccc(S(=O)(=O)N4CCOCC4)s3)ccc2n1CC1CCOCC1` [Co. No. 7] came in with a melting point of 198 °C. For the same molecule, the EC50 in data set [1] is over 10000 nM. For the same molecule, the “ratio CB2 agonism over CB1 agonism” value in data set [2] was over 5495. In addition, the EC50 in data set [2] (setting [3]) is 1.82 nM.

`CC(C)(C)c1nc2cc(S(=O)(=O)c3ccnc(O)c3)ccc2n1CC1CCOCC1` [Co. No. 8]: the melting point was over 300 °C. For the same molecule, the EC50 in data set [1] was 4680 nM. In addition, in data set [2], the “ratio CB2 agonism over CB1 agonism” value stood at 1514 and the “ratio CB2 over CB1 agonism” value stood at 1514. The EC50 in data set [2] (setting [3]) is 3.09 nM.

`CC(C)(C)c1nc2cc(S(=O)(=O)c3cc(Cl)cc(Cl)n3)ccc2n1CC1CCOCC1` [Co. No. 10] had a melting point of 137.43 °C. This molecule had an EC50 in data set [1] of 9550 nM. Besides, in data set [2], the “ratio CB2 agonism over CB1 agonism” value was 12883 and the “ratio CB2 over CB1 agonism” value was 12883. Besides, the EC50 in data set [2] (setting [3]) is 0.741 nM.

Turning to `COc1ccc(S(=O)(=O)c2ccc3c(c2)nc(C(C)(C)C)n3CC2CCOCC2)nn1` [Co. No. 11], the melting point is 174 to 180 °C. The same molecule showed an EC50 in data set [1] of 60.3 nM. For the same molecule, in data set [2], the “ratio CB2 agonism over CB1 agonism” value was found to be 48. In data set [2] (setting [3]), the EC50 was 1.26 nM.

For `CC(C)(C)c1nc2cc(S(=O)(=O)c3ccc(C(N)=O)o3)ccc2n1CC1CCOCC1` [Co. No. 12], the melting point is 234.8 °C. The molecule also had an EC50 in data set [1] of 468 nM. In addition, in data set [2], the “ratio CB2 agonism over CB1 agonism” value is reported as 302 and the “ratio CB2 over CB1 agonism” value is reported as 302. Moreover, the EC50 in data set [2] (setting [3]) is 1.55 nM.

Molecule `CC(C)(C)c1nc2cc(S(=O)(=O)c3ccnc(C(N)=O)c3)ccc2n1CC1CCOCC1` [Co. No. 16] returned a melting point of 247.1 °C. The molecule further had an EC50 in data set [1] of 851 nM. Besides, the “ratio CB2 agonism over CB1 agonism” value in data set [2] was determined as 359. In data set [2] (setting [3]), the EC50 was 2.34 nM.

For the molecule `CC(C)(C)c1nc2cc(S(=O)(=O)c3ccnc(C#N)c3)ccc2n1CC1CCOCC1` [Co. No. 17], the melting point is 201.2 °C. This molecule had an EC50 in data set [1] of 9330 nM. For the same molecule, the “ratio CB2 agonism over CB1 agonism” value in data set [2] (listed as 17) was determined as 5821. For the same molecule, in data set [2], the “ratio CB2 over CB1 agonism” value was found to be 5821. Besides, the EC50 in data set [2] (setting [3]) is 1.58 nM.

`CC(C)(C)c1nc2cc(S(=O)(=O)c3ccnc(Cl)c3)ccc2n1CC1CCOCC1` [Co. No. 18] returned a melting point of 201 °C. The same molecule had an EC50 in data set [1] of 631 nM. For the same molecule, the “ratio CB2 agonism over CB1 agonism” value in data set [2] came out at 933. Besides, in data set [2] (setting [3]), the EC50 is 0.676 nM.

Molecule `CC(C)(C)c1nc2cc(S(=O)(=O)c3cc[n+]([O-])cc3C(F)(F)F)ccc2n1CC1CCOCC1` [Co. No. 21] returned a melting point of 205.8 °C. The EC50 in data set [2] (setting [3]) was 3.8 nM.

Molecule `CC(O)c1ccc(S(=O)(=O)c2ccc3c(c2)nc(C(C)(C)C)n3CC2CCOCC2)nc1` (centres unmarked) [Co. No. 42] returned a melting point of 177 to 179 °C. Also, the EC50 in data set [2] (CB2 pEC50, hCB2-CHO-K1 cells) was 0.631 nM. The EC50 in data set [2] (setting [3]) was 3.98 nM.

`CC(C)(C)c1nc2cc(S(=O)(=O)c3ccn(/C(F)=C\I)c(=O)c3)ccc2n1CC1CCOCC1` [Co. No. 91] had a melting point of 164.4 °C. Besides, the “ratio CB2 agonism over CB1 agonism” value in data set [2] came to 1995. Moreover, in data set [2] (setting [3]), the EC50 was 5.01 nM.

Consider `CO[C@H]1CC[C@H](Cn2c(C(C)(C)C)nc3cc(S(=O)(=O)c4ccnc(F)c4)ccc32)CC1` [Co. No. 160], for which the EC50 in data set [1] was over 10000 nM; in data set [2] (setting [3]) it was 4.27 nM. Also, in data set [2], the “ratio CB2 agonism over CB1 agonism” value is reported as over 2344.

Turning to `COCCCn1cc(S(=O)(=O)c2ccc3c(c2)nc(C(C)(C)C)n3CC2CCOCC2)cn1` [Co. No. 161], the EC50 is 5250 nM in data set [1] and 1.82 nM in data set [2] (setting [3]). Also, the “ratio CB2 agonism over CB1 agonism” value in data set [2] amounted to 2951.

As for `CC(C)(C)c1nc2cc(S(=O)(=O)c3ccnc(F)c3)ccc2n1CCC1OCCO1` [Co. No. 165], the EC50 in data set [1] was over 10000 nM; in data set [2] (setting [3]), 10.7 nM. Besides, the “ratio CB2 agonism over CB1 agonism” value in data set [2] is over 923.
